Drawing on patent US8822485B2, “Amino heteroaryl compounds as beta-secretase modulators and methods of use” (Amgen Inc., priority 2010, dated 2014), this text covers IC50 for three molecules.

Assay [1] concerns the target BACE1 (Homo sapiens, UniProt P56817). Put plainly: In vitro enzymatic BACE FRET assay. Type of assay: biochemical. Particulars: IC50 range class; 0.2 nM enzyme, 50 nM FRET substrate, pH 4.2. The procedure:
In Vitro Enzymatic BACE FRET (Fluorescence Resonance Energy Transfer) Assay (Enzyme Assay Data in Table 1)
The assay buffer used in this screen is 0.05 M acetate, pH 4.2, 10% DMSO final, 100 uM genapol (which is a nonionic detergent, below its Critical Micelle Concentration). The Beta Secretase enzyme (0.2 nM) is pre-incubated for one hour with inhibitors, typically in about 1 uL of DMSO according to a serial dilution, are added thereto. The assay is effectively started by the addition of FRET substrate (50 nM) and the combination is incubated for one hour. The FRET assay is terminated with by addition of Tris buffer, which raises the pH to neutrality, and the fluorescence is determined. The FRET substrate is a peptide with commercially available fluorophore and quencher, on opposite sides of the BACE cleavage site. Proteolytic cleavage of the FRET substrate releases quenching of fluorescence (excitation […] and […]).
Of the compounds tested, the in-vitro BACE FRET enzyme data for each of Examples 1-33, where available at the time of filing this application, is provided in Table 1.

In assay [2] the test system is Aβ40 in conditioned medium of cells stably expressing Amyloid Precursor Protein (APP) (HEK cell). The assay is described as follows: In vitro BACE cell-based assay (HEK cell assay, Aβ40 sandwich ELISA). Particulars: Homo sapiens, HEK293; IC50 range class; inhibition of Aβ40 after 24 h incubation. The procedure: In Vitro BACE Cell-Based Assay:
The cell-based assay measures inhibition or reduction of Aβ40 □ in conditioned medium of test compound treated cells expressing amyloid precursor protein.
Cells stably expressing Amyloid Precursor Protein (APP) were plated at a density of 40K cells/well in 96 well plates (Costar). The cells were cultivated for 24 hours at 37° C. and 5% CO2 in DMEM supplemented with 10% FBS. The test compounds were then added to cells in 10-point dose response concentrations with the starting concentration being either 100 μM or 10 μM. The compounds were diluted from stock solutions in DMSO and the final DMSO concentration of the test compounds on cells was 0.1%. After 24 h of incubation with the test compounds the supernatant conditioned media was collected and the Aβ 40 levels were determined using a sandwich ELISA. The IC50 of the compound was calculated from the percent of control or percent inhibition of Aβ40 as a function of the concentration of the test compound.
The sandwich ELISA to detect Aβ 40 was performed in 96 well microtiter plates, which were pre-treated with goat anti-rabbit IgG (Pierce). The capture and detecting antibody pair that were used to detect Aβ 40 from cell supernatants were affinity purified pAb40 (Biosource) and biotinylated 6E10 (Signet Labs Inc.), respectively. The optimal concentration for the pAb40 antibody was 3 μg/ml in Superblock/TBS (Pierce) that was supplemented with 0.05% Tween 20 (Sigma). Optimal concentration for the detection antibody 6E10-biotinylated was 0.5 μg/ml in Superblock/TBS (Pierce) that had been supplemented with 2% normal goat serum and 2% normal mouse serum.
Cellular supernatants were incubated with the capture antibody for 3 h at 4° C., followed by 3 wash steps in TBS-tween (0.05%). The detecting antibody incubation was for 2 h at 4° C., again followed by the wash steps as described previously. The final readout of the ELISA is Time-Resolved Fluorescence (counts per minute) using Delfia reagents Streptavidin-Europium and Enhancement solutions (Perkin Elmer) and the Victor 2 multilabel counter (Perkin Elmer).
Of the compounds tested, the cell based assay data for each of Examples 1-33, where available at the time of filing this application, is provided in Table 1.

Chain of BACE1 (P56817 46-501, species assumed): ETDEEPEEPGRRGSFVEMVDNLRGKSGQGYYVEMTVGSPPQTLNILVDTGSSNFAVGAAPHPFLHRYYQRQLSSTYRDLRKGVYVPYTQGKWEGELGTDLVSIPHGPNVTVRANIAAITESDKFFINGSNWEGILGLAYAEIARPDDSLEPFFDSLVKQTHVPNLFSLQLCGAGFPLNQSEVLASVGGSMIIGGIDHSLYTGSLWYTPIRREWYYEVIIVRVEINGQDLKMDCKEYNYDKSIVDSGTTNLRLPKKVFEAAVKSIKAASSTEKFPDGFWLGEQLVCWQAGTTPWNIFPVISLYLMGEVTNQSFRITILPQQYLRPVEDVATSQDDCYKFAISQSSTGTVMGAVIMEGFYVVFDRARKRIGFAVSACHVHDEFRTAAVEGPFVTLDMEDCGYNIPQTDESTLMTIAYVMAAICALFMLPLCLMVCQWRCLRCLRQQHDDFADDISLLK

In the case of `Cc1ccccc1-c1ccc2nc(N)c(CCc3cncc(C4CCCCO4)c3)cc2c1` (stereo not drawn) [Example 31, 3-(2-(5-(tetrahydro-2H-pyran-2-yl)pyridin-3-yl)ethyl)-6-o-tolylquinolin-2-amine], the values for the IC50 in assay [1] and in assay [2] were 100 to 1000 nM and 1000 to 5000 nM, respectively.

Regarding `Cc1cccc(C(=O)N2CCCC2)c1-c1ccc2nc(N)c(CCc3cncnc3)cc2c1` [Example 33, (2-(2-amino-3-(2-(pyrimidin-5-yl)ethyl)quinolin-6-yl)-3-methylphenyl)(pyrrolidin-1-yl)methanone], the results for the IC50 in assay [1] and in assay [2] were below 100 nM and below 500 nM, respectively.

In the case of `Cc1cccc(C(=O)N2CCCC2)c1-c1ccc2nc(N)c(COc3cc(C(F)(F)F)ncn3)cc2c1` [Example 34, (2-(2-amino-3-((6-(trifluoromethyl)pyrimidin-4-yloxy)methyl)quinolin-6-yl)-3-methylphenyl)(pyrrolidin-1-yl)methanone], the IC50 in assay [1] was 100 to 1000 nM; in assay [2], 1000 to 5000 nM.
